Results reported in ChEMBL document CHEMBL1201861, “Genomics of Drug Sensitity in Cancer screening data, Wellcome Trust Sanger Institute”.

Experiments:
ChaGo-K-1 = test: cells; type: functional, cell-based; conditions: Homo sapiens;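 also: growth inhibition of ChaGo-K-1 cells, read out with a cell viability assay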
Description: SANGER: Inhibition of human ChaGo-K-1 cell growth in a cell viability assay.

DK-MG = test: cells; type: functional, cell-based; conditions: Homo sapiens;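 also: growth inhibition of DK-MG cells, read out with a cell viability assay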
Description: SANGER: Inhibition of human DK-MG cell growth in a cell viability assay.

DMS-79 = test: cells; type: functional, cell-based, Homo sapiens; conditions: Homo sapiens, DMS-79
Description: SANGER: Inhibition of human DMS-79 cell growth in a cell viability assay.

EFM-19 = test: cells; type: functional, cell-based; conditions: Homo sapiens;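 also: growth inhibition of human EFM-19 cells, measured in a cell viability assay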
Description: SANGER: Inhibition of human EFM-19 cell growth in a cell viability assay.

EGI-1 = test: cells; type: functional, cell-based; conditions: Homo sapiens;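 also: cell viability readout used to gauge growth inhibition of EGI-1 cells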
Description: SANGER: Inhibition of human EGI-1 cell growth in a cell viability assay.

EVSA-T = test: cells; type: functional, cell-based, Homo sapiens; conditions: Homo sapiens, EVSA-T;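 also: growth inhibition of EVSA-T cells, read out with a cell viability assay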
Description: SANGER: Inhibition of human EVSA-T cell growth in a cell viability assay.

G-401 = test: cells; type: functional, cell-based; conditions: Homo sapiens
Description: SANGER: Inhibition of human G-401 cell growth in a cell viability assay.

HC-1 = test: cells; type: functional, cell-based, Homo sapiens; conditions: Homo sapiens, HC-1;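 also: growth inhibition of HC-1 cells measured by a cell viability assay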
Description: SANGER: Inhibition of human HC-1 cell growth in a cell viability assay.

HCC1599 = test: cells; type: functional, cell-based, Homo sapiens; conditions: Homo sapiens, HCC1599;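 also: growth inhibition of HCC1599 cells, read out in a cell viability assay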
Description: SANGER: Inhibition of human HCC1599 cell growth in a cell viability assay.

HPAF-II = test: cells; type: functional, cell-based; conditions: Homo sapiens;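 also: growth inhibition of HPAF-II cells, read out with a cell viability assay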
Description: SANGER: Inhibition of human HPAF-II cell growth in a cell viability assay.

HSC-3 = test: cells; type: functional, cell-based; conditions: Homo sapiens
Description: SANGER: Inhibition of human HSC-3 cell growth in a cell viability assay.

HT55 = test: cells; type: functional, cell-based; conditions: Homo sapiens;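 also: cell viability readout measuring growth inhibition of human HT55 cells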
Description: SANGER: Inhibition of human HT55 cell growth in a cell viability assay.

Huh-7 = test: cells; type: functional, cell-based; conditions: Homo sapiens;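 also: HuH-7 cell growth inhibition, read out with a cell viability assay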
Description: SANGER: Inhibition of human HuH-7 cell growth in a cell viability assay.

IST-SL2 = test: cells; type: functional, cell-based, Homo sapiens; conditions: Homo sapiens, IST-SL2;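 also: growth inhibition of human IST-SL2 cells, read out by a cell viability assay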
Description: SANGER: Inhibition of human IST-SL2 cell growth in a cell viability assay.

KP-4 = test: cells; type: functional, cell-based; conditions: Homo sapiens;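 also: human KP-4 cells, with growth inhibition read out through a cell viability assay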
Description: SANGER: Inhibition of human KP-4 cell growth in a cell viability assay.

MFH-ino = test: cells; type: functional, cell-based, Homo sapiens; conditions: Homo sapiens, MFH-ino;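 also: growth inhibition of human MFH-ino cells, read out by a cell viability assay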
Description: SANGER: Inhibition of human MFH-ino cell growth in a cell viability assay.

MG-63 = test: cells; type: functional, cell-based; conditions: Homo sapiens;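 also: growth inhibition of human MG-63 cells, read out with a cell viability assay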
Description: SANGER: Inhibition of human MG-63 cell growth in a cell viability assay.

MHH-ES-1 = test: cells; type: functional, cell-based; conditions: Homo sapiens
Description: SANGER: Inhibition of human MHH-ES-1 cell growth in a cell viability assay.

MIA PaCa-2 = test: cells; type: functional, cell-based; conditions: Homo sapiens;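 also: growth inhibition of MIA PaCa-2 cells, read out with a cell viability assay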
Description: SANGER: Inhibition of human MIA-PaCa-2 cell growth in a cell viability assay.

MKN-28 = test: cells; type: functional, cell-based; conditions: Homo sapiens;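 also: cell viability assay read-out, IC50 reflects suppression of growth of human MKN-28 cells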
Description: SANGER: Inhibition of human MKN28 cell growth in a cell viability assay.

MeWo = test: cells; type: functional, cell-based; conditions: Homo sapiens;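 also: growth inhibition of MeWo cells, determined by a cell viability readout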
Description: SANGER: Inhibition of human Mewo cell growth in a cell viability assay.

NALM-6 = test: cells; type: functional, cell-based, Homo sapiens; conditions: Homo sapiens, NALM-6;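 also: growth inhibition of NALM-6 cells, read out with a cell viability assay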
Description: SANGER: Inhibition of human NALM-6 cell growth in a cell viability assay.

NCCIT = test: SANGER: Inhibition of human NCCIT cell growth in a cell viability assay.; type: functional, cell-based; conditions: Homo sapiens, NCCIT
NCI-H1623 = test: cells; type: functional, cell-based; conditions: Homo sapiens;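 also: cell viability assay used as the read-out for growth inhibition of NCI-H1623 cells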
Description: SANGER: Inhibition of human NCI-H1623 cell growth in a cell viability assay.

NCI-H187 = test: cells; type: functional, cell-based, Homo sapiens; conditions: Homo sapiens, NCI-H187;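 also: growth inhibition of NCI-H187 cells, read out as cell viability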
Description: SANGER: Inhibition of human NCI-H187 cell growth in a cell viability assay.

NCI-H2347 = test: cells; type: functional, cell-based; conditions: Homo sapiens;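 also: growth inhibition of the cell line, read out with a cell viability assay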
Description: SANGER: Inhibition of human NCI-H2347 cell growth in a cell viability assay.

NCI-H28 = test: cells; type: functional, cell-based; conditions: Homo sapiens;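 also: growth inhibition of human NCI-H28 cells, read out as cell viability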
Description: SANGER: Inhibition of human NCI-H28 cell growth in a cell viability assay.

NCI-H441 = test: cells; type: functional, cell-based; conditions: Homo sapiens;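 also: growth inhibition of NCI-H441 cells, read out with a cell viability assay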
Description: SANGER: Inhibition of human NCI-H441 cell growth in a cell viability assay.

NCI-H460 = test: cells; type: functional, cell-based; conditions: Homo sapiens;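 also: cell viability assay scoring growth inhibition of human NCI-H460 cells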
Description: SANGER: Inhibition of human NCI-H460 cell growth in a cell viability assay.

NCI-H719 = test: cells; type: functional, cell-based, Homo sapiens; conditions: Homo sapiens, NCI-H719;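 also: growth inhibition of the cultured cell line, read out with a viability assay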
Description: SANGER: Inhibition of human NCI-H719 cell growth in a cell viability assay.

NCI-H889 = test: cells; type: functional, cell-based, Homo sapiens; conditions: Homo sapiens, NCI-H889;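 also: cell growth inhibition of the cell line, read out with a viability assay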
Description: SANGER: Inhibition of human NCI-H889 cell growth in a cell viability assay.

OE33 = test: cells; type: functional, cell-based; conditions: Homo sapiens;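 also: growth inhibition of human OE33 cells, measured by a cell viability assay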
Description: SANGER: Inhibition of human OE33 cell growth in a cell viability assay.

OVCAR-8 = test: cells; type: functional, cell-based; conditions: Homo sapiens;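 also: growth inhibition of human OVCAR-8 cells, read out by a cell viability assay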
Description: SANGER: Inhibition of human OVCAR-8 cell growth in a cell viability assay.

P12-Ichikawa = test: cells; type: functional, cell-based; conditions: Homo sapiens
P31-FUJ = test: cells; type: functional, cell-based, Homo sapiens; conditions: Homo sapiens, P31-FUJ;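 also: growth inhibition of P31-FUJ cells, read out with a viability assay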
Description: SANGER: Inhibition of human P31-FUJ cell growth in a cell viability assay.

PANC-08-13 = test: cells; type: functional, cell-based; conditions: Homo sapiens
Description: SANGER: Inhibition of human PANC-08-13 cell growth in a cell viability assay.

Panc1005 = test: cells; type: functional, cell-based; conditions: Homo sapiens;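 also: growth inhibition of human PANC-10-05 cells, measured by a cell viability assay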
Description: SANGER: Inhibition of human PANC-10-05 cell growth in a cell viability assay.

RCM-1 = test: cells; type: functional, cell-based; conditions: Homo sapiens;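 also: growth inhibition of the RCM-1 line, determined with a cell viability readout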
Description: SANGER: Inhibition of human RCM-1 cell growth in a cell viability assay.

RO82-W-1 = test: cells; type: functional, cell-based; conditions: Homo sapiens;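 also: growth inhibition of human RO82-W-1 cells, measured with a cell viability assay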
Description: SANGER: Inhibition of human RO82-W-1 cell growth in a cell viability assay.

SCC-25 = test: cells; type: functional, cell-based; conditions: Homo sapiens;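 also: growth inhibition of SCC-25 cells, measured with a cell viability assay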
Description: SANGER: Inhibition of human SCC-25 cell growth in a cell viability assay.

SF-295 = test: cells; type: functional, cell-based; conditions: Homo sapiens;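 also: growth inhibition of SF-295 cells, read out with a cell viability assay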
Description: SANGER: Inhibition of human SF295 cell growth in a cell viability assay.

SK-MEL-28 = test: cells; type: functional, cell-based; conditions: Homo sapiens;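 also: growth inhibition of human SK-MEL-28 cells, read out with a cell viability assay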
Description: SANGER: Inhibition of human SK-MEL-28 cell growth in a cell viability assay.

SK-MEL-30 = test: cells; type: functional, cell-based; conditions: Homo sapiens;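 also: growth inhibition of SK-MEL-30 cells, determined with a cell viability assay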
Description: SANGER: Inhibition of human SK-MEL-30 cell growth in a cell viability assay.

SK-N-AS = test: cells; type: functional, cell-based; conditions: Homo sapiens;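 also: growth inhibition of human SK-N-AS cells, measured with a cell viability assay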
Description: SANGER: Inhibition of human SK-N-AS cell growth in a cell viability assay.

SW948 = test: cells; type: functional, cell-based; conditions: Homo sapiens;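 also: growth inhibition of SW948 cells, read out with a cell viability assay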
Description: SANGER: Inhibition of human SW948 cell growth in a cell viability assay.

SAOS-2 = test: cells; type: functional, cell-based; conditions: Homo sapiens;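 also: growth inhibition of human Saos-2 cells determined by a cell viability assay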
Description: SANGER: Inhibition of human Saos-2 cell growth in a cell viability assay.

23132-87 = test: cells; type: functional, cell-based; conditions: Homo sapiens
Description: SANGER: Inhibition of human 23132-87 cell growth in a cell viability assay.

5637 = test: cells; type: functional, cell-based; conditions: Homo sapiens
Description: SANGER: Inhibition of human 5637 cell growth in a cell viability assay.

647-V = test: cells; type: functional, cell-based; conditions: Homo sapiens;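 also: growth inhibition of 647-V cells, read out with a cell viability assay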
Description: SANGER: Inhibition of human 647-V cell growth in a cell viability assay.

769-P = test: cells; type: functional, cell-based; conditions: Homo sapiens
Description: SANGER: Inhibition of human 769-P cell growth in a cell viability assay.

8305C = test: cells; type: functional, cell-based; conditions: Homo sapiens
Description: SANGER: Inhibition of human 8305C cell growth in a cell viability assay.

A-431 = test: cells; type: functional, cell-based; conditions: Homo sapiens;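 also: growth inhibition of A-431 cells, determined with a cell viability read-out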
Description: SANGER: Inhibition of human A431 cell growth in a cell viability assay.

BCPAP = test: cells; type: functional, cell-based; conditions: Homo sapiens;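 also: growth inhibition of BCPAP cells, read out in a cell viability assay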
Description: SANGER: Inhibition of human BCPAP cell growth in a cell viability assay.

BHT-101 = test: cells; type: functional, cell-based; conditions: Homo sapiens
Description: SANGER: Inhibition of human BHT-101 cell growth in a cell viability assay.

BL-41 = test: cells; type: functional, cell-based; conditions: Homo sapiens;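 also: growth inhibition of human BL-41 cells, read out with a cell viability assay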
Description: SANGER: Inhibition of human BL-41 cell growth in a cell viability assay.

CAL-72 = test: cells; type: functional, cell-based; conditions: Homo sapiens;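 also: cell viability assay measuring inhibition of proliferation in the CAL-72 cell line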
Description: SANGER: Inhibition of human CAL-72 cell growth in a cell viability assay.

U2OS = test: cells; type: functional, cell-based, U-2-OS; conditions: Homo sapiens;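 also: growth inhibition of human U-2-OS cells, determined with a cell viability assay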
Description: SANGER: Inhibition of human U-2-OS cell growth in a cell viability assay.

UMC-11 = test: cells; type: functional, cell-based; conditions: Homo sapiens;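 also: growth inhibition of UMC-11 cells, read out with a cell viability assay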
Description: SANGER: Inhibition of human UMC-11 cell growth in a cell viability assay.

WM-115 = test: cells; type: functional, cell-based; conditions: Homo sapiens
Description: SANGER: Inhibition of human WM-115 cell growth in a cell viability assay.

WSU-NHL = test: cells; type: functional, cell-based, Homo sapiens; conditions: Homo sapiens, WSU-NHL;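 also: growth inhibition of human WSU-NHL cells, read out with a cell viability assay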
Description: SANGER: Inhibition of human WSU-NHL cell growth in a cell viability assay.

OC[C@H](Cc1ccccc1)Nc1nc(Oc2ccc3c(c2)CCC3)nc2c1ncn2Cc1ccc(-c2ccccc2)cc1
IC50 (ChaGo-K-1): > 10200 nM | IC50 (DK-MG): > 10200 nM | IC50 (DMS-79): > 10200 nM | IC50 (EFM-19): > 10200 nM | IC50 (EGI-1): > 10200 nM | IC50 (EVSA-T): > 10200 nM | IC50 (G-401): > 10200 nM | IC50 (HC-1): > 10200 nM | IC50 (HCC1599): > 10200 nM | IC50 (HPAF-II): > 10200 nM | IC50 (HSC-3): 3880 nM | IC50 (HT55): > 10200 nM | IC50 (Huh-7): > 10200 nM | IC50 (IST-SL2): > 10200 nM | IC50 (KP-4): > 10200 nM | IC50 (MFH-ino): 2410 nM | IC50 (MG-63): 4630 nM | IC50 (MHH-ES-1): > 10200 nM | IC50 (MIA PaCa-2): 8880 nM | IC50 (MKN-28): 1730 nM | IC50 (MeWo): > 10200 nM | IC50 (NALM-6): 3510 nM | IC50 (NCCIT): > 10200 nM | IC50 (NCI-H1623): > 10200 nM | IC50 (NCI-H187): > 10200 nM | IC50 (NCI-H2347): > 10200 nM | IC50 (NCI-H28): > 10200 nM | IC50 (NCI-H441): > 10200 nM | IC50 (NCI-H460): 2730 nM | IC50 (NCI-H719): > 10200 nM | IC50 (NCI-H889): > 10200 nM | IC50 (OE33): > 10200 nM | IC50 (OVCAR-8): > 10200 nM | IC50 (P12-Ichikawa): 7930 nM | IC50 (P31-FUJ): > 10200 nM | IC50 (PANC-08-13): > 10200 nM | IC50 (Panc1005): > 10200 nM | IC50 (RCM-1): > 10200 nM | IC50 (RO82-W-1): > 10200 nM | IC50 (SCC-25): > 10200 nM | IC50 (SF-295): 3230 nM | IC50 (SK-MEL-28): > 10200 nM | IC50 (SK-MEL-30): 8890 nM | IC50 (SK-N-AS): > 10200 nM | IC50 (SW948): > 10200 nM | IC50 (SAOS-2): > 10200 nM | IC50 (23132-87): 6070 nM | IC50 5637: 4180 nM | IC50 (647-V): > 10200 nM | IC50 (769-P): 3640 nM | IC50 (8305C): 2760 nM | IC50 (A-431): 3320 nM | IC50 (BCPAP): > 10200 nM | IC50 (BHT-101): > 10200 nM | IC50 (BL-41): 3690 nM | IC50 (CAL-72): > 10200 nM | IC50 (U2OS): > 10200 nM | IC50 (UMC-11): > 10200 nM | IC50 (WM-115): > 10200 nM | IC50 (WSU-NHL): > 10200 nM

C/C(=C\c1csc(C)n1)[C@@H]1C[C@@H]2O[C@]2(C)CCC[C@H](C)[C@H](O)[C@@H](C)C(=O)C(C)(C)[C@@H](O)CC(=O)O1 [PATUPILONE]
IC50 (ChaGo-K-1): 9.61 nM | IC50 (DK-MG): > 32 nM | IC50 (DMS-79): > 32 nM | IC50 (EFM-19): 10.6 nM | IC50 (EGI-1): > 32 nM | IC50 (EVSA-T): 30.7 nM | IC50 (G-401): 1.51 nM | IC50 (HC-1): 3.98 nM | IC50 (HCC1599): 11.9 nM | IC50 (HPAF-II): 21 nM | IC50 (HSC-3): 0.786 nM | IC50 (HT55): > 32 nM | IC50 (Huh-7): 7.11 nM | IC50 (IST-SL2): 7.03 nM | IC50 (KP-4): 0.682 nM | IC50 (MFH-ino): 0.885 nM | IC50 (MG-63): 0.165 nM | IC50 (MHH-ES-1): 0.893 nM | IC50 (MIA PaCa-2): 1.31 nM | IC50 (MKN-28): 0.462 nM | IC50 (MeWo): > 32 nM | IC50 (NALM-6): 2.18 nM | IC50 (NCCIT): 1.73 nM | IC50 (NCI-H1623): 16.9 nM | IC50 (NCI-H187): > 32 nM | IC50 (NCI-H2347): > 32 nM | IC50 (NCI-H28): 22 nM | IC50 (NCI-H441): 2.53 nM | IC50 (NCI-H460): 0.333 nM | IC50 (NCI-H719): > 32 nM | IC50 (NCI-H889): > 32 nM | IC50 (OE33): 7.63 nM | IC50 (OVCAR-8): 1.06 nM | IC50 (P12-Ichikawa): 11 nM | IC50 (P31-FUJ): > 32 nM | IC50 (PANC-08-13): 31.1 nM | IC50 (Panc1005): 1.12 nM | IC50 (RCM-1): 15.2 nM | IC50 (RO82-W-1): > 32 nM | IC50 (SCC-25): 1.22 nM | IC50 (SF-295): 1.92 nM | IC50 (SK-MEL-28): > 32 nM | IC50 (SK-MEL-30): 1.34 nM | IC50 (SK-N-AS): > 32 nM | IC50 (SW948): 17.8 nM | IC50 (SAOS-2): > 32 nM | IC50 (23132-87): 3.67 nM | IC50 5637: 0.638 nM | IC50 (647-V): 2.42 nM | IC50 (769-P): 0.753 nM | IC50 (8305C): 2.32 nM | IC50 (A-431): < 0.125 nM | IC50 (BCPAP): 0.581 nM | IC50 (BHT-101): 1.52 nM | IC50 (BL-41): 1.35 nM | IC50 (CAL-72): > 32 nM | IC50 (U2OS): > 32 nM | IC50 (UMC-11): > 32 nM | IC50 (WM-115): > 32 nM | IC50 (WSU-NHL): 4.15 nM
